The values below come from patent US10597390B2, “Indoles for use in influenza virus infection” (Janssen Sciences Ireland UC, priority 2014, dated 2020).

Bounds are passed on as bounds.

The test system of data set [1] is influenza virus A/Taiwan/1/86 (H1N1). The experiment in a line: organism not typed. Type of data set: cell-based. The conditions noted are these: MDCK, 72 h, CPE in MDCK cells, three days post-virus exposure, ATPlite.
A short description of another data set: in vitro. The note with it: dog, TOX MDCK CC50.

The term IC50 denotes the point on the concentration scale where inhibition reaches its midpoint. High values mean a need for much substance, low ones inhibition by little substance. As a reminder, the CC50 is the concentration giving 50% cytotoxicity. A high value points to lower toxicity to the cells.

`O=C(NC1COCC(Nc2nc(-c3c[nH]c4c(F)cc(F)cc34)ncc2F)C1)c1cnn[nH]1` (stereo not drawn) [Compound 261, N-(5-((2-(5,7-difluoro-1H-indol-3-yl)-5-fluoropyrimidin-4-yl)amino)-tetrahydro-2H-pyran-3-yl)-1H-1,2,3-triazole-5-carboxamide] gave an IC50 in data set [1] of 1 µM. In “in vitro”, this compound displayed a CC50 at 3 days above 25 µM.
In data set [1], `Cn1cnc(C(=O)N[C@@H]2CCC[C@H](Nc3nc(-c4c[nH]c5c(F)cc(C#N)cc45)ncc3F)C2)c1` (racemic) [Compound 174] showed an IC50 of 0.01 µM. Also, the cytotoxic concentration (CC50) at 3 days in the data set “in vitro” is above 25 µM.
In the case of `CCn1ccnc1C(=O)N[C@@H]1CCC[C@H](Nc2nc(-c3c[nH]c4c(F)cc(F)cc34)ncc2F)C1` [Compound 125], half-maximal inhibition in data set [1] (IC50) required 0.004 µM. The compound also displayed a CC50 at 3 days in the data set “in vitro” of 10.2 µM.
For `Cn1cnc(C(=O)NC2CC(Nc3nc(-c4c[nH]c5c(F)cc(F)cc45)ncc3F)CC(C)(C)C2)c1` (stereo not drawn) [Compound 202, N-(5-((2-(5,7-difluoro-1H-indol-3-yl)-5-fluoropyrimidin-4-yl)amino)-3,3-dimethylcyclohexyl)-1-methyl-1H-imidazole-4-carboxamide], in that order: 0.79 µM and 3.9 µM.
In data set [1], `O=C(N[C@@H]1CCC[C@H](Nc2nc(-c3c[nH]c4c(F)cc(F)cc34)ncc2F)C1)c1ccno1` (racemic) [Compound 97] had an IC50 of 0.012 µM. The CC50 at 3 days in the data set “in vitro” is above 22.7 µM.
On to `Cc1cc(C(=O)N[C@H]2CCC[C@@H](Nc3nc(-c4c[nH]c5c(F)cc(F)cc45)c(C(F)(F)F)cc3F)C2)nn1C` (racemic) [Compound 177], for which the IC50 in data set [1] worked out at 0.038 µM. Moreover, in the data set “in vitro”, it took 14.7 µM to reach half-maximal cytotoxicity (CC50 at 3 days).
For `Cc1cc(C(=O)N[C@H]2CCC[C@@H](Nc3nc(-c4c[nH]c5c(F)cc(F)cc45)c(C(F)(F)F)cc3F)C2)on1` (racemic) [Compound 181] the same measures were 0.011 µM and 16.4 µM.
As for `Cn1cnc(C(=O)N[C@@H]2CCC[C@H](Nc3nc(-c4c[nH]c5c(F)cc(F)cc45)ncc3F)C2)c1` (racemic) [Compound 92], in data set [1], half-maximal inhibition (IC50) was put at 0.004 µM. In addition, the midpoint of cytotoxicity in “in vitro”, the CC50 at 3 days, lay at 11.4 µM.
For `Cn1nc(C(=O)O)cc1C(=O)N[C@@H]1CCC[C@H](Nc2nc(-c3c[nH]c4c(F)cc(F)cc34)ncc2F)C1` (relative stereo) [Compound 159, 5-(((1R*,3S*)-3-((2-(5,7-difluoro-1H-indol-3-yl)-5-fluoropyrimidin-4-yl)amino)cyclohexyl)carbamoyl)-1-methyl-1H-pyrazole-3-carboxylic acid] the same measures were 0.31 µM and above 25 µM.
For `CC(C)(C)[C@H](CC(=O)O)Nc1nc(-c2c[nH]c3c(F)cc(F)cc23)c(C(F)(F)F)cc1F` (single isomer, unassigned) [Compound 17, (S*)-3-((6-(5,7-difluoro-1H-indol-3-yl)-3-fluoro-5-(trifluoromethyl)pyridin-2-yl)amino)-4,4-dimethylpentanoic acid] the same measures were 0.037 µM and 6.2 µM.
For `O=C(N[C@@H]1CCC[C@H](Nc2nc(-c3c[nH]c4c(F)cc(F)cc34)ncc2F)C1)c1ccc(F)cn1` (racemic) [Compound 95] the same measures were 0.012 µM and above 25 µM.
The compound `CC(C)(C)[C@@H](CC(=O)O)Nc1nc(-c2c[nH]c3c(F)cc(F)cc23)c(C(F)(F)F)cc1F` (single isomer, unassigned) [Compound 18, (R*)-3-((6-(5,7-difluoro-1H-indol-3-yl)-3-fluoro-5-(trifluoromethyl)pyridin-2-yl)amino)-4,4-dimethylpentanoic acid] showed an IC50 in data set [1] above 25 µM. This compound also displayed a CC50 at 3 days in the data set “in vitro” of 0.21 µM.
For `CC(C)(c1cccs1)C(CC(=O)O)Nc1nc(-c2c[nH]c3c(F)cc(F)cc23)ncc1F` (stereo not drawn) [Compound 230] the same measures were 0.041 µM and 4 µM.
For `CC(C)(C)C(CC(=O)O)Nc1nc(-c2c[nH]c3c(F)cc(Cl)cc23)ncc1F` (stereo not drawn) [Compound 39] the same measures were 0.011 µM and 0.86 µM.
Turning to `Cc1cc(C(=O)N[C@@H]2CCC[C@@H](Nc3nc(-c4c[nH]c5c(F)cc(F)cc45)c(C#N)cc3F)C2)no1` [Compound 204], in data set [1], it took 0.01 µM to reach half-maximal inhibition (IC50). Also, it took 6.8 µM to reach half-maximal cytotoxicity in the data set “in vitro” (CC50 at 3 days).
For `Cc1cc(F)c2[nH]cc(-c3ncc(F)c(N[C@@H]4C5CCC(CC5)[C@H]4C(=O)O)n3)c2c1` [Compound 165], in that order: above 25 µM and 2.3 µM.
With `CC(C)(C)[C@H](CC(=O)O)Nc1nc(-c2c[nH]c3c(F)cc(Cl)cc23)ncc1F` [Compound 40], in data set [1], the IC50 amounted to 0.005 µM. The CC50 at 3 days in the data set “in vitro” was 0.4 µM.
For `O=C(O)[C@H]1[C@@H]2CC[C@@H](C2)[C@@H]1Nc1nc(-c2c[nH]c3c(F)cc(F)cc23)ncc1F` (racemic) [Compound 217, (+/−)-(2-exo, 3-endo)-3-((2-(5,7-difluoro-1H-indol-3-yl)-5-fluoropyrimidin-4-yl)amino)bicyclo[2.2.1]heptane-2-carboxylic Acid] the same measures were 0.022 µM and 5 µM.
For `CC(=O)NCc1cc(F)c(N[C@H]2CCC[C@@H](NC(=O)N3CCCC3)C2)nc1-c1c[nH]c2c(F)cc(F)cc12` (racemic) [Compound 6], in that order: 0.05 µM and above 25 µM.
For `CC[C@@]1(C(=O)O)CCCC[C@H]1Nc1nc(-c2c[nH]c3c(F)cc(F)cc23)ncc1F` [Compound 253], in that order: 0.12 µM and 15.2 µM.
On to `CCOC(=O)NCc1cc(F)c(NC(CC(=O)O)C(C)(C)C)nc1-c1c[nH]c2c(F)cc(F)cc12` (stereo not drawn) [Compound 256], for which, in data set [1], the IC50 was found to be 0.29 µM. The compound also had a CC50 at 3 days in “in vitro” of 13.1 µM.
For `O=C(N[C@@H]1CCC[C@H](Nc2nc(-c3c[nH]c4c(F)cc(F)cc34)ncc2F)C1)c1cc(=O)[nH][nH]1` [Compound 158], in that order: 0.015 µM and 13 µM.
Compound `Cc1cc(F)c2[nH]cc(-c3nc(NC(CC(=O)O)C(C)(C)c4ccn(C)n4)c(F)cc3C#N)c2c1` (stereo not drawn) [Compound 25, 3-((5-cyano-3-fluoro-6-(7-fluoro-5-methyl-1H-indol-3-yl)pyridin-2-yl)amino)-4-methyl-4-(1-methyl-1H-pyrazol-3-yl)pentanoic acid] had a half-inhibitory concentration (IC50) in data set [1] of 0.041 µM. Besides, in the data set “in vitro”, the CC50 at 3 days amounted to 0.9 µM.
Consider `CC(C)c1cc(C(=O)N[C@H]2CCC[C@@H](Nc3nc(-c4c[nH]c5c(F)cc(F)cc45)c(C(F)(F)F)cc3F)C2)no1` (racemic) [Compound 182], for which the CC50 at 3 days in “in vitro” was above 25 µM.
In turn, `Cn1cnc(C(=O)N[C@@H]2CCC[C@H](Nc3nc(-c4c[nH]c5c(F)cc(F)cc45)c(C#N)cc3F)C2)c1` [Compound 184] returned an IC50 in data set [1] of 0.003 µM. Moreover, the CC50 at 3 days in the data set “in vitro” was above 25 µM.
In data set [1], `Cn1cccc1C(=O)N[C@@H]1CCC[C@H](Nc2nc(-c3c[nH]c4c(F)cc(F)cc34)ncc2F)C1` (racemic) [Compound 94] came in with an IC50 of 0.005 µM. In addition, in the data set “in vitro”, the CC50 at 3 days was 18.4 µM.
For `N#Cc1cc(F)c2[nH]cc(-c3ncc(F)c(N[C@H]4CCC[C@@H](NC(=O)c5ccccn5)C4)n3)c2c1` (racemic) [Compound 173], in that order: 0.013 µM and above 25 µM.
With `N#Cc1cc(F)c(N[C@H]2CCC[C@@H](NC(=O)c3ccccn3)C2)nc1-c1c[nH]c2c(F)cc(F)cc12` (racemic) [Compound 208], in data set [1], the concentration for half-maximal inhibition (IC50) came to 0.006 µM. This compound showed a half-maximal cytotoxic concentration (CC50) at 3 days in “in vitro” above 25 µM.
For `N#Cc1cc(F)c(N[C@H]2CCC[C@@H](NC(=O)N3CCCC3)C2)nc1-c1c[nH]c2c(F)cc(F)cc12` (racemic) [Compound 4], in that order: 0.004 µM and above 25 µM.
For `O=C(N[C@H]1CCC[C@@H](Nc2nc(-c3c[nH]c4c(F)cc(F)cc34)c(C(F)(F)F)cc2F)C1)c1cnccn1` (racemic) [Compound 180] the same measures were 0.02 µM and above 25 µM.
For `CC(C)(C)C(Cc1nnn[nH]1)Nc1nc(-c2c[nH]c3c(F)cc(F)cc23)ncc1F` (stereo not drawn) [Compound 19, 2-(5,7-difluoro-1H-indol-3-yl)-N-(3,3-dimethyl-1-(1H-tetrazol-5-yl)butan-2-yl)-5-fluoropyrimidin-4-amine] the same measures were 0.16 µM and 3.7 µM.
As for `Cn1nc(NS(C)(=O)=O)cc1C(=O)N[C@@H]1CCC[C@H](Nc2nc(-c3c[nH]c4c(F)cc(F)cc34)ncc2F)C1` (relative stereo) [Compound 226, N-((1R*,3S*)-3-((2-(5,7-difluoro-1H-indol-3-yl)-5-fluoropyrimidin-4-yl)-amino)cyclohexyl)-1-methyl-3-(methylsulfonamido)-1H-pyrazole-5-carboxamide], the IC50 in data set [1] came to 0.003 µM. In addition, in the data set “in vitro”, it took 17.5 µM to reach half-maximal cytotoxicity (CC50 at 3 days).
For `C=Cn1cnc(C(=O)N[C@@H]2CCC[C@H](Nc3nc(-c4c[nH]c5c(F)cc(F)cc45)ncc3F)C2)c1` [Compound 89] the same measures were 0.004 µM and 7.3 µM.
The compound `Cn1[nH]c(=O)cc1C(=O)N[C@@H]1CCC[C@H](Nc2nc(-c3c[nH]c4c(F)cc(F)cc34)ncc2F)C1` [Compound 160] showed an IC50 in data set [1] of 0.0006 µM. The compound further came in with a cytotoxic concentration (CC50) at 3 days in “in vitro” above 25 µM.
`O=C(N[C@@H]1CCC[C@H](Nc2nc(-c3c[nH]c4c(F)cc(F)cc34)ncc2F)C1)N1CCCC1` (racemic) [Compound 1, N-((cis)-3-((2-(5,7-difluoro-1H-indol-3-yl)-5-fluoropyrimidin-4-yl)amino)cyclohexyl)pyrrolidine-1-carboxamide]: half-maximal inhibition in data set [1] (IC50) was put at 0.003 µM. The CC50 at 3 days in the data set “in vitro” worked out at 10.2 µM.
In turn, `O=C(O)[C@H]1C2CCC(CC2)[C@@H]1Nc1nc(-c2c[nH]c3c(F)cc(Cl)cc23)ncc1F` [Compound 30] had a concentration for half-maximal inhibition (IC50) in data set [1] of 0.003 µM. This compound also registered a CC50 at 3 days in the data set “in vitro” of 0.2 µM.
In the case of `O=C(N[C@@H]1CCC[C@H](Nc2nc(-c3c[nH]c4c(F)ccc(F)c34)ncc2F)C1)N1CCCC1` (racemic) [Compound 7], in data set [1], the IC50 amounted to 0.46 µM. This compound also returned a CC50 at 3 days in “in vitro” above 25 µM.
Compound `Cn1cnc(C(=O)N[C@H]2CCC[C@H](Nc3nc(-c4c[nH]c5c(F)cc(F)cc45)c(C#N)cc3F)C2)c1` [Compound 183] gave an IC50 in data set [1] of 1.1 µM. This compound also came in with a CC50 at 3 days in “in vitro” above 25 µM.
